Reference: patent US8648066B2 (Exelixis, Inc., priority 2009, dated 2014)

Molecular target: mTOR/GbL/Raptor (mTORC1) (Homo sapiens, UniProt P42345)
Experiment: mTOR/GbL/Raptor (mTORC1) ELISA assay
Type: biochemical
Settings: phosphorylation of 4E-BP1; 0.2 nM mTORC1, 10 μM ATP; read-out: IC50 in this assay (mTORC1 ELISA)
Method in brief: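 Human mTORC1 (0.2 nM) phosphorylated 50 nM His-tagged 4E-BP1 with 10 µM ATP in HEPES pH 7.2 containing 10 mM MnCl2, 120 min at ambient temperature. Substrate was captured on Ni-chelate plates; phospho-4E-BP1 was detected by primary antibody and HRP secondary with luminescence.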

| SMILES | IC50 [nM] |
| --- | --- |
| Cc1nc2ccc(-c3ccc4c(c3)CN(c3nc(CN(C)C)nc5c3CC(C)(C)CC5)CCO4)cc2[nH]1 [Example 351, 1-{6,6-dimethyl-4-[7-(2-methyl-1H-benzimidazol-6-yl)-2,3-dihydro-1,4-benzoxazepin-4(5H)-yl]-5,6,7,8-tetrahydroquinazolin-2-yl}-N,N-dimethylmethanamine] | 10 to 50 |
| COCCOc1cc(-c2ccc3c(c2)CN(c2nc(CN(C)C)nc4c2CC(C)(C)CC4)CCO3)ccc1OC [Example 648, 1-(6,6-dimethyl-4-{7-[4-(methyloxy)-3-{[2-(methyloxy)ethyl]oxy}phenyl]-2,3-dihydro-1,4-benzoxazepin-4(5H)-yl}-5,6,7,8-tetrahydroquinazolin-2-yl)-N,N-dimethylmethanamine] | 250 to 1000 |
| CC[C@H](C)NCc1nc2c(c(N3CCOc4ccc(-c5cnc6nc(C)[nH]c6c5)cc4C3)n1)CC(C)(C)CC2 [Example 304, (2S)-N-({6,6-dimethyl-4-[7-(2-methyl-1H-imidazo[4,5-b]pyridin-6-yl)-2,3-dihydro-1,4-benzoxazepin-4(5H)-yl]-5,6,7,8-tetrahydroquinazolin-2-yl}methyl)butan-2-amine] | ≤ 10 |
| COCCOCc1nc2c(c(N3CCOc4ccc(-c5ccc6nc(C)[nH]c6c5)cc4C3)n1)CC(C)(C)CC2 [Example 494, 4-[6,6-dimethyl-2-({[2-(methyloxy)ethyl]oxy}methyl)-5,6,7,8-tetrahydroquinazolin-4-yl]-7-(2-methyl-1H-benzimidazol-6-yl)-2,3,4,5-tetrahydro-1,4-benzoxazepine] | 10 to 50 |
| Cc1ncnc(N2CCOc3ccc(-c4cnc5nc(N)cn5c4)cc3C2)c1Cc1ccc(F)cc1 [Example 144, 6-(4-{5-[(4-fluorophenyl)methyl]-6-methylpyrimidin-4-yl}-2,3,4,5-tetrahydro-1,4-benzoxazepin-7-yl)imidazo[1,2-a]pyrimidin-2-amine] | 10 to 50 |
| c1ccc2c(N3CCOc4ccc(-c5ccc6scnc6c5)cc4C3)ccnc2c1 [Example 129, 7-(1,3-benzothiazol-5-yl)-4-quinolin-4-yl-2,3,4,5-tetrahydro-1,4-benzoxazepine] | 250 to 1000 |
| CC(C)NS(=O)(=O)c1cc(-c2ccc3c(c2)CN(c2ncnc4c2CC(C)(C)CC4)CCO3)cnc1N [Example 364, 2-amino-5-[4-(6,6-dimethyl-5,6,7,8-tetrahydroquinazolin-4-yl)-2,3,4,5-tetrahydro-1,4-benzoxazepin-7-yl]-N-(1-methylethyl)pyridin-3-sulfonamide] | 10 to 50 |
| CCS(=O)(=O)c1cc(-c2ccc3c(c2)CN(c2ncnc4c2CC(C)(C)CC4)CCO3)cnc1N [Example 510, 5-[4-(6,6-dimethyl-5,6,7,8-tetrahydroquinazolin-4-yl)-2,3,4,5-tetrahydro-1,4-benzoxazepin-7-yl]-3-(ethylsulfonyl)pyridin-2-amine] | 10 to 50 |
| COc1cc2ncnc(N3CCOc4ccc(-c5ccc6nc(C)[nH]c6c5)cc4C3)c2cc1I [Example 37, 4-[6-iodo-7-(methyloxy)quinazolin-4-yl]-7-(2-methyl-1H-benzimidazol-6-yl)-2,3,4,5-tetrahydro-1,4-benzoxazepine] | 10 to 50 |
| CNC(=O)c1ccc(-c2ccc3c(c2)CN(c2ncnc(C)c2Cc2ccc(F)cc2)CCO3)nc1 [Example 155, 6-(4-{5-[(4-fluorophenyl)methyl]-6-methylpyrimidin-4-yl}-2,3,4,5-tetrahydro-1,4-benzoxazepin-7-yl)-N-methylpyridine-3-carboxamide] | 250 to 1000 |
| Cc1nc2ncc(-c3ccc4c(c3)CN(c3nc(CN5CCC(F)(F)C5)nc5c3CC(C)(C)CC5)CCO4)cc2[nH]1 [Example 503, 4-{2-[(3,3-difluoropyrrolidin-1-yl)methyl]-6,6-dimethyl-5,6,7,8-tetrahydroquinazolin-4-yl}-7-(2-methyl-1H-imidazo[4,5-b]pyridin-6-yl)-2,3,4,5-tetrahydro-1,4-benzoxazepine] | 10 to 50 |
